From patent US20200339582A1, “Atypical Carbapenem Antibiotics with Improved Activity Against Carbapenemase-Producing Acinetobacter baumannii” (priority 2019, published 2020)
Values after ≈ are worked out from the molar mass of the structure shown. Where two headings read alike, the source gives them in different places.

Key:
Format in all cases: cell-based
[1] = tested on: resistant Acinetobacter baumannii producing KPC-6; assay: MIC against Acinetobacter baumannii producing KPC-6
[2] = tested on: resistant Acinetobacter baumannii producing VIM-2; assay: MIC against Acinetobacter baumannii producing VIM-2
[3] = tested on: resistant Acinetobacter baumannii producing OXA-48; assay: MIC against Acinetobacter baumannii producing OXA-48
[4] = tested on: resistant Acinetobacter baumannii producing NDM-1; assay: MIC against Acinetobacter baumannii producing NDM-1
[5] = tested on: Acinetobacter baumannii (carbapenemase produced: None); assay: MIC against Acinetobacter baumannii, no carbapenemase produced
[6] = tested on: resistant Acinetobacter baumannii producing OXA-23; assay: MIC against Acinetobacter baumannii producing OXA-23
[7] = Acinetobacter baumannii, Table 2, enzyme produced: VIM-2, read-out: MIC
[8] = Acinetobacter baumannii, Table 2, enzyme produced: None, read-out: MIC
[9] = Table 1, carbapenemase produced: OXA-48
[10] = Table 1, carbapenemase produced: None
[11] = Table 1, carbapenemase produced: OXA-23
[12] = Table 2, enzyme produced: OXA-48
[13] = Table 2, enzyme produced: OXA-23
[14] = Acinetobacter baumannii, Table 1, carbapenemase produced: OXA-48, read-out: MIC
[15] = Acinetobacter baumannii, Table 2, enzyme produced: OXA-48, read-out: MIC
[16] = Acinetobacter baumannii, Table 2, enzyme produced: NDM-1, read-out: MIC
[17] = Acinetobacter baumannii, Table 1, carbapenemase produced: None, read-out: MIC
[18] = Acinetobacter baumannii, Table 1, carbapenemase produced: OXA-23, read-out: MIC

Compound | MIC ([1]; Acinetobacter baumannii) | MIC [2, 7] | MIC [5, 8] | MIC [3, 9] | MIC [5, 10] | MIC [6, 11] | MIC [6, 13] | MIC [3, 14] | MIC [3, 15] | MIC [4, 16] | MIC [5, 17] | MIC [6, 18] | also measured
CC1(C)S[C@@H]2[C@H](NC(=O)[C@H](N)c3ccccc3)C(=O)N2[C@H]1C(=O)O [AMP, ampicillin] | 4100 µg/mL (≈ 11700 µM) | > 8190 µg/mL | 32 µg/mL (≈ 91.6 µM) | – | – | – | – | – | – | – | – | – | MIC ([3]; Acinetobacter baumannii): 1020 µg/mL (≈ 2930 µM); MIC ([4]; Acinetobacter baumannii): 1020 µg/mL (≈ 2930 µM); MIC ([6]; Acinetobacter baumannii, Table 2, enzyme produced: OXA-23, read-out: MIC): 8190 µg/mL (≈ 23400 µM)
CN(C)C(=O)[C@@H]1C[C@H](SC2=C(C(=O)O)N3C(=O)[C@H](CO)[C@H]3C2)CN1 [Compound 1] | – | – | – | 16 µg/mL (≈ 45 µM) | 0.25 µg/mL (≈ 0.703 µM) | 8 µg/mL (≈ 22.5 µM) | – | – | – | – | – | – | –
C[C@@H](O)[C@H]1C(=O)N2C(C(=O)O)=C(S[C@@H]3CN[C@H](C(=O)N(C)C)C3)CC12C (stereo partly drawn) [Compound 2a, (6S)-6-[(R)-1-Hydroxyethyl]-3-[(3S,5S)-5-(dimethylamino)carbonyl-3-pyrrolidinylthio]-5-methyl-7-oxoazabicyclo[3.2.0]hept-2-ene-2-carboxylate] | – | – | – | 1 µg/mL (≈ 2.61 µM) | 0.5 µg/mL (≈ 1.3 µM) | 4 µg/mL (≈ 10.4 µM) | – | – | – | – | – | – | –
CCC12CC(S[C@@H]3CN[C@H](C(=O)N(C)C)C3)=C(C(=O)O)N1C(=O)[C@@H]2[C@@H](C)O (stereo partly drawn) [Compound 2b, (6S)-6-[(R)-1-Hydroxyethyl]-3-[(3S,5S)-5-(dimethylamino)carbonyl-3-pyrrolidinylthio]-5-ethyl-7-oxoazabicyclo[3.2.0]hept-2-ene-2-carboxylate] | – | – | – | 4 µg/mL (≈ 10.1 µM) | 2 µg/mL (≈ 5.03 µM) | 4 µg/mL (≈ 10.1 µM) | 4 µg/mL (≈ 10.1 µM) | – | – | – | – | – | MIC ([1]; Table 2, enzyme produced: KPC-6): 4 µg/mL (≈ 10.1 µM); MIC ([2]; Table 2, enzyme produced: VIM-2): 4 µg/mL (≈ 10.1 µM); MIC [3, 12]: 4 µg/mL (≈ 10.1 µM); MIC ([4]; Table 2, enzyme produced: NDM-1): 2 µg/mL (≈ 5.03 µM); MIC ([5]; Table 2, enzyme produced: None): 2 µg/mL (≈ 5.03 µM)
C[C@@H](O)[C@H]1C(=O)N2C(C(=O)O)=C(S[C@@H]3CN[C@H](CNS(N)(=O)=O)C3)[C@H](C)[C@H]12 [Doripenem, doripenem] | 128 µg/mL (≈ 304 µM) | 32 µg/mL (≈ 76.1 µM) | 0.25 µg/mL (≈ 0.595 µM) | – | – | – | 32 µg/mL (≈ 76.1 µM) | 16 µg/mL (≈ 38 µM) | 16 µg/mL (≈ 38 µM) | 64 µg/mL (≈ 152 µM) | 0.25 µg/mL (≈ 0.595 µM) | 32 µg/mL (≈ 76.1 µM) | –
C[C@@H](O)[C@H]1C(=O)N2C(C(=O)O)=C(S[C@@H]3CN[C@H](C(=O)Nc4cccc(C(=O)O)c4)C3)[C@H](C)[C@H]12 [Ertapenem, ertapenem] | > 512 µg/mL | – | 4 µg/mL (≈ 8.41 µM) | – | – | – | 256 µg/mL (≈ 538 µM) | – | – | 256 µg/mL (≈ 538 µM) | 2 µg/mL (≈ 4.21 µM) | 256 µg/mL (≈ 538 µM) | MIC ([2]; Acinetobacter baumannii): > 512 µg/mL; MIC ([3]; Acinetobacter baumannii): 128 µg/mL (≈ 269 µM); MIC [3, 12]: 128 µg/mL (≈ 269 µM)
C[C@@H](O)[C@H]1C(=O)N2C(C(=O)O)=C(SCCN=CN)C[C@H]12 [Imipenem, imipenem] | – | 32 µg/mL (≈ 107 µM) | 0.25 µg/mL (≈ 0.835 µM) | – | – | – | 32 µg/mL (≈ 107 µM) | 16 µg/mL (≈ 53.4 µM) | 16 µg/mL (≈ 53.4 µM) | 16 µg/mL (≈ 53.4 µM) | 0.25 µg/mL (≈ 0.835 µM) | 32 µg/mL (≈ 107 µM) | –
C[C@@H](O)[C@H]1C(=O)N2C(C(=O)O)=C(S[C@@H]3CN[C@H](C(=O)N(C)C)C3)[C@H](C)[C@H]12 [Meropenem, meropenem] | 256 µg/mL (≈ 668 µM) | 64 µg/mL (≈ 167 µM) | 0.5 µg/mL (≈ 1.3 µM) | – | – | – | 64 µg/mL (≈ 167 µM) | 8 µg/mL (≈ 20.9 µM) | 16 µg/mL (≈ 41.7 µM) | – | 0.5 µg/mL (≈ 1.3 µM) | 64 µg/mL (≈ 167 µM) | MIC ([4]; Acinetobacter baumannii): 128 µg/mL (≈ 334 µM)
